Results published in patent publication US12030896B2, “PIKfyve inhibitors” (Mayo Foundation for Medical Education and Research, priority 2018, dated 2024).

Each molecule was assayed on U251 (assay: U251 Vacuolization Assay (24h)). Details: Homo sapiens, U-251.
Type: cell-based
Method: As used herein the term “EC50 (μM)” refers to the μM concentration of a compound that is required for 50% activity in a vacuolization assay.
Example A—U251 Vacuolization Assay Data (24h) for Compounds of Examples 8-56

EC50 [nM]	Structure (SMILES)
> 50000	Cc1ccc(Nc2nc(N/N=C\c3coc4ccccc34)nc(N3CCOCC3)n2)cc1 [Example 53, 4-(2-(benzofuran-3-ylmethylene)hydrazinyl)-6-morpholino-N-(p-tolyl)-1,3,5-triazin-2-amine]
≤ 1000	Clc1ccccc1Nc1nc(N/N=C/c2c[nH]c3ccccc23)nc(N2CCOCC2)n1 [Example 42, (2-Chloro-phenyl)-{4-[N′-(1H-indol-3-ylmethylene)-hydrazino]-6-morpholin-4-yl-[1,3,5]triazin-2-yl}-amine]
> 50000	Cc1ccc(Nc2nc(N/N=C/c3c[nH]c4ccccc34)nc(N(CCO)CCO)n2)cc1 [Example 14, 2-((2-Hydroxy-ethyl)-{4-[N′-(1H-indol-3-ylmethylene)-hydrazino]-6-p-tolylamino-[1,3,5]triazin-2-yl}-amino)-ethanol]
> 50000	COCCN(CCOC)c1nc(N/N=C/c2c[nH]c3ccccc23)nc(Nc2ccc(C)cc2)n1 [Example 29, (E)-6-(2-((1H-Indol-3-yl)methylene)hydrazinyl)-N2,N2-bis(2-methoxyethyl)-N4-(p-tolyl)-1,3,5-triazine-2,4-diamine]
1000 to 10000	Cc1ccc(Nc2nc(NCc3c[nH]c4ccccc34)nc(N3CCOCC3)n2)cc1 [Example 8, N-(1H-Indol-3-ylmethyl)-6-morpholin-4-yl-N′-p-tolyl-[1,3,5]triazine-2,4-diamine]
> 50000	Cc1ccc(Nc2nc(NCCc3c[nH]c4ccccc34)nc(N3CCOCC3)n2)cc1 [Example 54, N2-(2-(1H-indol-3-yl)ethyl)-6-morpholino-N4-(p-tolyl)-1,3,5-triazine-2,4-diamine]
> 50000	COC1CCN(c2nc(N/N=C/c3c[nH]c4ccccc34)nc(Nc3ccc(C)cc3)n2)CC1 [Example 49, (E)-4-(2-((1H-Indol-3-yl)methylene)hydrazinyl)-6-(4-methoxypiperidin-1-yl)-N-(p-tolyl)-1,3,5-triazin-2-amine]
> 50000	Cc1ccc(Nc2nc(N/N=C/c3c[nH]c4ccccc34)nc(N3CCCC3)n2)cc1 [Example 16, {4-[N′-(1H-Indol-3-ylmethylene)-hydrazino]-6-pyrrolidin-1-yl-[1,3,5]triazin-2-yl}-p-tolyl-amine]
≤ 1000	CC(=O)Nc1ccc(Nc2nc(N/N=C/c3c[nH]c4ccccc34)nc(N3CCOCC3)n2)cc1 [Example 28, (E)-N-(4-((4-(2-((1H-indol-3-yl)methylene)hydrazinyl)-6-morpholino-1,3,5-triazin-2-yl)amino)phenyl)acetamide]
≤ 1000	Clc1ccc(Nc2nc(N/N=C/c3c[nH]c4ccccc34)nc(N3CCOCC3)n2)cc1 [Example 11, (E)-4-(2-((1h-indol-3-yl)methylene)hydrazinyl)-n-(4-chlorophenyl)-6-morpholino-1,3,5-triazin-2-amine]
1000 to 10000	COCCN(c1nc(N/N=C/c2c[nH]c3ccccc23)nc(Nc2ccc(C)cc2)n1)C(C)C [Example 51, (E)-6-(2-((1H-Indol-3-yl)methylene)hydrazinyl)-N2-isopropyl-N2-(2-methoxyethyl)-N4-(p-tolyl)-1,3,5-triazine-2,4-diamine]
1000 to 10000	Cc1ccc(Nc2nc(N/N=C/c3ccccn3)nc(N3CCOCC3)n2)cc1 [Example 43, [4-Morpholin-4-yl-6-(N′-pyridin-2-ylmethylene-hydrazino)-[1,3,5]triazin-2-yl]-p-tolyl-amine]
≤ 1000	CS(=O)(=O)Nc1ccc(Nc2nc(N/N=C/c3c[nH]c4ccccc34)nc(N3CCOCC3)n2)cc1 [Example 46, (E)-N-(4-((4-(2-((1H-indol-3-yl)methylene)hydrazinyl)-6-morpholino-1,3,5-triazin-2-yl)amino)phenyl)methanesulfonamide]
≤ 1000	Cc1ccc(Nc2nc(N/N=C/c3c[nH]c4ccccc34)nc(N3CCOCC3)n2)nc1 [Example 45, {4-[N′-(1H-Indol-3-ylmethylene)-hydrazino]-6-morpholin-4-yl-[1,3,5]triazin-2-yl}-(5-methyl-pyridin-2-yl)-amine]
≤ 1000	Cc1ccc(Nc2nc(N/N=C/c3ccccc3)nc(N3CCOCC3)n2)cc1 [Example 33, [4-(N′-Benzylidene-hydrazino)-6-morpholin-4-yl-[1,3,5]triazin-2-yl]-p-tolyl-amine]
≤ 1000	Cc1ccc(Nc2nc(N/N=C/c3c[nH]c4ccccc34)nc(N3CCc4ccccc4C3)n2)cc1 [Example 47, (E)-4-(2-((1H-Indol-3-yl)methylene)hydrazinyl)-6-(3,4-dihydroisoquinolin-2(1H)-yl)-N-(p-tolyl)-1,3,5-triazin-2-amine]
≤ 1000	COc1ccc(Nc2nc(N/N=C/c3c[nH]c4ccccc34)nc(N3CCOCC3)n2)cc1 [Example 12, {4-[N′-(1H-Indol-3-ylmethylene)-hydrazino]-6-morpholin-4-yl-[1,3,5]triazin-2-yl}-(4-methoxy-phenyl)-amine]
1000 to 10000	Cc1ccc(Nc2nc(N/N=C\c3csc4ccccc34)nc(N3CCOCC3)n2)cc1 [Example 31, [4-(N′-Benzo[b]thiophen-3-ylmethylene-hydrazino)-6-morpholin-4-yl-[1,3,5]triazin-2-yl]-p-tolyl-amine]
> 50000	CCN(C)c1nc(N/N=C/c2c[nH]c3ccccc23)nc(Nc2ccc(C)cc2)n1 [Example 35, (E)-6-(2-((1H-Indol-3-yl)methylene)hydrazinyl)-N2-ethyl-N2-methyl-N4-(p-tolyl)-1,3,5-triazine-2,4-diamine]
10000 to 50000	Cc1ccc(Nc2nc(N/N=C\c3cc[nH]c3)nc(N3CCOCC3)n2)cc1 [Example 24, {4-Morpholin-4-yl-6-[N′-(1H-pyrrol-3-ylmethylene)-hydrazino]-[1,3,5]triazin-2-yl}-p-tolyl-amine]
≤ 1000	Nc1ccc(Nc2nc(N/N=C/c3c[nH]c4ccccc34)nc(N3CCOCC3)n2)cc1 [Example 27, N1-(4-(2-((1h-indol-3-yl)methylene)hydrazinyl)-6-morpholino-1,3,5-triazin-2-yl)benzene-1,4-diamine]
> 50000	Cc1ccc(Nc2nc(N/N=C/c3c[nH]c4ccccc34)nc(N3CCC3)n2)cc1 [Example 36, (E)-4-(2-((1H-Indol-3-yl)methylene)hydrazinyl)-6-(azetidin-1-yl)-N-(p-tolyl)-1,3,5-triazin-2-amine]
≤ 1000	FC(F)(F)c1ccc(Nc2nc(N/N=C/c3c[nH]c4ccccc34)nc(N3CCOCC3)n2)cc1 [Example 20, (E)-4-(2-((1h-indol-3-yl)methylene)hydrazinyl)-6-morpholino-n-(4-(trifluoromethyl)phenyl)-1,3,5-triazin-2-amine]
> 50000	Cc1ccc(Nc2nc(N/N=C/c3c[nH]c4ccccc34)nc(N3CCN(C)CC3)n2)cc1 [Example 17, [4-[N′-(1H-Indol-3-ylmethylene)-hydrazino]-6-(4-methyl-piperazin-1-yl)-[1,3,5]triazin-2-yl]-p-tolyl-amine]
1000 to 10000	Cc1ccc(Nc2nc(N/N=C/c3cc4ccccc4[nH]3)nc(N3CCOCC3)n2)cc1 [Example 44, {4-[N′-(1H-Indol-2-ylmethylene)-hydrazino]-6-morpholin-4-yl-[1,3,5]triazin-2-yl}-p-tolyl-amine]
≤ 1000	Clc1cccc(Nc2nc(N/N=C/c3c[nH]c4ccccc34)nc(N3CCOCC3)n2)c1 [Example 25, (3-Chloro-phenyl)-{4-[N′-(1H-indol-3-ylmethylene)-hydrazino]-6-morpholin-4-yl-[1,3,5]triazin-2-yl}-amine]
1000 to 10000	Cc1ccc(Nc2nc(N/N=C\c3cccnc3)nc(N3CCOCC3)n2)cc1 [Example 23, [4-Morpholin-4-yl-6-(N′-pyridin-3-ylmethylene-hydrazino)-[1,3,5]triazin-2-yl]-p-tolyl-amine]
> 50000	Cc1ccc(Nc2nc(N/N=C/c3c[nH]c4ccccc34)nc(N3CCNCC3)n2)cc1 [Example 18, {4-[N′-(1H-Indol-3-ylmethylene)-hydrazino]-6-piperazin-1-yl-[1,3,5]triazin-2-yl}-p-tolyl-amine]
≤ 1000	C(=N\Nc1nc(Nc2cccc3ccccc23)nc(N2CCOCC2)n1)/c1c[nH]c2ccccc12 [Example 55, (E)-4-(2-((1H-indol-3-yl)methylene)hydrazinyl)-6-morpholino-N-(naphthalen-1-yl)-1,3,5-triazin-2-amine]

Structure (SMILES)	EC50 [nM]
Cc1ccc(Nc2cc(-n3ncc4c5ccccc5[nH]c43)nc(N3CCOCC3)n2)cc1 [Example 40, [2-morpholin-4-yl-6-(8H-pyrazolo[3,4-b]indol-1-yl)-pyrimidin-4-yl]-p-tolyl-amine]	10000 to 50000
Cc1ccc(Nc2cc(N3CCOCC3)nc(N/N=C/c3c[nH]c4ccccc34)n2)cc1 [Example 41, {2-[N′-(1H-indol-3-ylmethylene)-hydrazino]-6-morpholin-4-yl-pyrimidin-4-yl}-p-tolyl-amine]	1000 to 10000
Cc1cccc(Nc2nc(N/N=C/c3c[nH]c4ccccc34)nc(N3CCOCC3)n2)c1 [Example 9, {4-[N′-(1H-Indol-3-ylmethylene)-hydrazino]-6-morpholin-4-yl-[1,3,5]triazin-2-yl}-m-tolyl-amine]	≤ 1000
Fc1ccc(Nc2nc(N/N=C/c3c[nH]c4ccccc34)nc(N3CCOCC3)n2)cc1 [Example 10, (4-Fluoro-phenyl)-{4-[N′-(1H-indol-3-ylmethylene)-hydrazino]-6-morpholin-4-yl-[1,3,5]triazin-2-yl}-amine]	≤ 1000
CN(C)c1ccc(Nc2nc(N/N=C/c3c[nH]c4ccccc34)nc(N3CCOCC3)n2)cc1 [Example 34, (E)-N1-(4-(2-((1H-indol-3-yl)methylene)hydrazinyl)-6-morpholino-1,3,5-triazin-2-yl)-N4,N4-dimethylbenzene-1,4-diamine]	≤ 1000
Cc1ccc(Nc2nc(N/N=C/c3c[nH]c4ccccc34)nc(N3C4CCC3COC4)n2)cc1 [Example 52, (E)-4-(2-((1H-Indol-3-yl)methylene)hydrazinyl)-6-(3-oxa-8-azabicyclo[3.2.1]octan-8-yl)-N-(p-tolyl)-1,3,5-triazin-2-amine]	1000 to 10000
Cc1ccc(Nc2cc(N/N=C/c3c[nH]c4ccccc34)nc(N3CCOCC3)n2)cc1 [Example 39]	1000 to 10000
